Experimental findings from US20060167030A1, “Sulfonamido-macrocycles and the salts thereof, a pharmaceutical composition comprising these compounds, the method of preparing and the use thereof” (priority 2004, published 2006) are described below.

Data set [1] in a line: Proliferation test / cytotoxicity assay (crystal violet). Type of data set: cell-based. The note with it: human, DU 145 tumour cells; cell line DU 145. On the procedure: Biological Experiment 3: Proliferation Test
To examine cell toxicity a cell proliferation test were established.
With the cell proliferation test different tumour cell lines (e.g. Du 145) can be examined. The cells were dispensed in RPMI 1640 culture medium, supplied with 10% (v/v) fetal calf serum plus 1% (v/v) Penicillin/Streptomycin solution at a cell density of 2.000 cell/100 μL medium/per well (96 well plate). After three hours the cells were washed with PBS (containing calcium and magnesium). 100 μL of culture medium above with 0.1% (v/v) fetal calf serum was added and cultured at 37° C. and 5% CO2-atmosphere. Next day compounds of the present invention diluted in DMSO for appropriate concentrations were added and further 100 μL culture medium 0.5% (v/v) fetal calf serum. After 5 days cell culturing at 37° C. and 5% CO2-atmosphere cells were washed with PBS. 20 μL of glutaraldehyde solution (11% (v/v)) is added and the cells were slightly shaken at room temperature for 15 min. After that the cell were washed 3 times and dried in the air. 100 μL of crystal violet solution (0.1% at pH 3.5) were added and the cells were shaken for 30 min. The cells were washed with tap water and air-dried. The colour is dissolved with 100 μL of acetic acid (10% (v/v)) under strong shaking for 5 min. The absorption was measured at 595 nm wavelength.

Data set [2] concerns the target T1, Tie2 (Homo sapiens, UniProt Q02763).
T1 construct: fused on or other part: GST in the kinase assays; none in the CHO cell assay
The data set can be described thus: Tie2 kinase assay or Tie2 autophosphorylation ELISA test (not stated which). The following applies: either assay; not specified per compound; read-out: IC50 of Tie2 inhibition, either in the Tie2 kinase assay or in the Tie2 autophosphorylation ELISA test. The format is biochemical. The source says: Biological Experiment 1: ELISA Method
Herein CHO cell-cultures, which are stably transfected by known techniques with Tie2 using DHFR deficiency as selection marker, are stimulated by angiopoietin-2. The specific autophosphorytation of Tie2 receptors is quantified with a sandwich-ELISA using anti-Tie2 antibodies for catch and anti-phosphotyrosine antibodies coupled to HRP as detection.
• 96 well tissue culture plate, sterile, Greiner • 96 well FluoroNunc plate MaxiSorp Surface C, Nunc • 96 well plate polypropylene for compound dilution in DMSO • CHO Tie2/DHFR (transfected cells) • PBS−; PBS++, DMSO • MEM alpha Medium with Glutamax-I without Ribonucleosides and Deoxyribonucleosides (Gibco #32561-029) • with 10% FCS after dialysis! and 1% PenStrep • Lysis buffer: 1 Tablet “Complete” protease inhibitor • 1 cap Vanadate (1 mL>40 mg/mL; working solution 2 mM) • ad 50 mL with Duschl-Puffer • pH 7.6 • Anti-TIE-II antibody 1:425 in Coating Buffer pH 9.6 • Stock solution: 1.275 mg/mL>working: 3 μg/mL • PBST: 2 bottles PBS(10×)+10 ml Tween, fill up with VE-water • RotiBlock 1:10 in VE-water • Anti-Phosphotyrosine HRP-Conjugated 1:10000 in 3% TopBlock • 3% TopBlock in PBST • BM Chemiluminescence ELISA Substrate (POD) • solution B 1:100 solution A • SF9 cell culture medium • Ang2-Fc in SF9 cell culture medium Cell Experiment: • Dispense 5×10^4 cells/well/98 μL in 96 well tissue culture plate • Incubate at 37° C./5% CO2 • After 24 h add compounds according to desired concentrations • Add also to control and stimulated values without compounds 2 μL DMSO • And mix for a few min at room temperature • Add 100 μL Ang2-Fc to all wells except control, which receives insect medium • Incubate 20 min at 37° C. • Wash 3× with PBS++ • Add 100 μl Lysis buffer/well and shake a couple of min at room temperature • Store lysates at […] before utilizing for the ELISA Performance of Sandwich-ELISA • Coat 96 well FluoroNunc Plate MaxiSorp Surface C with anti-Tie2 Mab • 1:425 in Coating buffer pH 9.6; 100 μL/well overnight at 4° C. • Wash 2× with PBST • Blcock plates with 250 μL/well RotiBtock 1:10 in VE-water • Incubate for 2 h at room temperature or overnight at 4° C. shaking • Wash 2× in PBST • Add thawed lysates to wells and incubate overnight shaking at 4° C. • Wash 2× with PBST • Add 100 μL/well anti-Phosphotyrosine HRP-Conjugated 1:10000 in 3% TopBLock (3% TopBLock in PBST) and incubate overnight under shaking • Wash 6× with PBST • Add 100 μL/well BM Chemiluminescence ELISA Substrate (POD) solutions 1 und 2 (1:100) • Determine luminescence with the LumiCount. Biological Experiment 2: Tie-2-Kinase HTRF-Assay
Tie-2 phosphorylates tyrosine residues of the artificial substrate poLyGAT (biolinylated poLyGLuAlaTyr). Detection of phosphorylated product is achieved specifically by a trimeric detection complex consisting of the phosphorylated substrate, streptavidin-XLent (SA-XLent) which binds to biotin, and Europium Cryptate-LabeLed anti-phosphotyrosine antibody PT66 which binds to phosphorylated tyrosine. Excitation of Europium fluorescence with 337 nm light results in emission of long-lived light with 620 nm. In case a trimeric detection complex has formed, part of the energy will be transferred to the SA-XLent fluorophore that itself then emits long-lived light of 665 nm (FRET: fluorescence resonance energy transfer). […] Measurement is performed in a Packard Discovery or BMG Rubystar instrument. A-counts (emission at 665 nm) will be divided by B-counts (emission at 620 nm) and multiplicated with a factor of 10000. The resulting numbers are called the “well ratio” of the sample.
A recombinant fusion protein of GST and the intracellular domains of Tie-2, expressed in insect cells (Hi-5) and purified by Glutathion-Sepharose affinity chromatography was used as kinase. Alternatively, commercially available GST-Tie2-fusion protein (Upstate Biotechnology, Dundee, Scotland) can be used. […]
In general terms: ELISA stands for enzyme-linked immunosorbent assay.

T1 sequence (Q02763 770-1124 limits assumed): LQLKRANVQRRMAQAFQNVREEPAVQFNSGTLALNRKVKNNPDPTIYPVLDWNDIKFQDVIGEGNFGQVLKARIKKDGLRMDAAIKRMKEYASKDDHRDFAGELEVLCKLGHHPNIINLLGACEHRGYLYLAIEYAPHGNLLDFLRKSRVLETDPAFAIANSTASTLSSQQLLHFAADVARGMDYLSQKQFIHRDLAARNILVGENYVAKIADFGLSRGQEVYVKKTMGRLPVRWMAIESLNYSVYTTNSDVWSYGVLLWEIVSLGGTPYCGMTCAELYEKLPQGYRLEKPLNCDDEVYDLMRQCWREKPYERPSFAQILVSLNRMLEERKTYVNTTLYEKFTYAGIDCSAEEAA

The term IC50 denotes the concentration that gives 50% inhibition. Take `COC(=O)c1ccc(-c2cnc3nc2NCCCNS(=O)(=O)c2cccc(c2)N3)cc1` [Example 6, methyl 4-[4,4-dioxo-4λ^6-thia-2,5,9-triaza-1(2,4)-pyrimidina-3(1,3)-benzenacyclononaphan-1^5-yl]benzoate]: the IC50 at 5 days in data set [1] was above 1000 nM. Besides, in data set [2], the IC50 was at most 2000 nM.

In turn, `CC(=O)c1ccc(-c2cnc3nc2NCCCNS(=O)(=O)c2cccc(c2)N3)cc1` [Example 7, 1-[4-[4,4-dioxo-4λ^6-thia-2,5,9-triaza-1(2,4)-pyrimidina-3(1,3)-benzenacyclononaphan-1^5-yl]phenyl]-ethanone] yielded an IC50 at 5 days in data set [1] above 1000 nM. The IC50 in data set [2] is at most 2000 nM. The corresponding values for `O=S1(=O)NCCCNc2nc(ncc2-c2ccccc2)Nc2cccc1c2` [Example 8, 1^5-phenyl-4-thia-2,5,9-triaza-1(2,4)-pyrimidina-3(1,3)-benzenacyclononaphane 4,4-dioxide] are above 1000 nM and at most 2000 nM. `O=S1(=O)NCCCNc2nc(ncc2-c2ccc(O)cc2)Nc2cccc1c2` [Example 9, 4-[4,4-dioxo-4λ^6-thia-2,5,9-triaza-1(2,4)-pyrimidina-3(1,3)-benzenacyclononaphan-1^5-yl]phenol]: in data set [2], the IC50 was at most 2000 nM. For the compound `COc1ccc(-c2cnc3nc2NCCCNS(=O)(=O)c2cccc(c2)N3)cc1` [Example 10, 1^5-(4-methoxyphenyl)-4-thia-2,5,9-triaza-1(2,4)-pyrimidina-3(1,3)-benzenacyclononaphane 4,4-dioxide], in data set [1], the IC50 at 5 days is above 1000 nM. Further, the IC50 in data set [2] is at most 2000 nM. In the case of `CS(=O)(=O)c1ccc(-c2cnc3nc2NCCCNS(=O)(=O)c2cccc(c2)N3)cc1` [Example 11, 1^5-(4-methylsulfonylphenyl)-4-thia-2,5,9-triaza-1(2,4)-pyrimidina-3(1,3)-benzenacyclononaphane 4,4-dioxide], the IC50 in data set [2] is at most 2000 nM.

With `O=S1(=O)NCCCNc2nc(ncc2/C=C\c2ccccc2)Nc2cccc1c2` [Example 51, 1^5-((Z)-styryl)-4-thia-2,5,9-triaza-1(2,4)-pyrimidina-3(1,3)-benzenacyclononaphane 4,4-dioxide], in data set [2], the IC50 is at most 2000 nM.

For the compound `C=C(c1ccccc1)c1cnc2nc1NCCCNS(=O)(=O)c1cccc(c1)N2` [Example 52, 1^5-(1-phenyl-vinyl)-4-thia-2,5,9-triaza-1(2,4)-pyrimidina-3(1,3)-benzenacyclononaphane 4,4-dioxide], the IC50 in data set [2] was at most 2000 nM.
